Columns and labels:
[1] = tested on: sperms of male C57/B6 mice (fertilization function of a mammal sperm); assay: Semination by in vitro fertilization with sperms precultured in test culture medium; two-cell egg formation; format: cell-based

SMILES	melting point [°C]	other results
Cn1cc(C(CC(=O)c2ccc(F)cc2F)C(=O)O)c2ccccc21 (centres unmarked) [(6-1), 4-(2,4-difluorophenyl)-2-(1-methyl-1H-indol-3-yl)-4-oxo-butanoic Acid]	192 to 193	–
N#CC(C#N)=NNc1ccc(OC(F)(F)F)cc1 [FCCP, carbonyl cyanide-p-trifluoromethoxyphenylhydrazone, reference compound]	–	Fertilization rate (%) ([1]; sperms precultured 1 hour in TYH culture medium containing 10 μM FCCP (uncoupler), control without FCCP 47.4%): 30%; The number of two-cell eggs ([1]; sperms precultured 1 hour in TYH culture medium containing 10 μM FCCP, 10 ova): 3
Cc1ccc2[nH]cc(C(CC(=O)c3ccc(F)cc3F)C(=O)O)c2c1 (centres unmarked) [(3-3), 4-(2,4-difluorophenyl)-2-(5-methyl-1H-indol-3-yl)-4-oxo-butanoic Acid]	200 to 202	–
O=C(CC(C(=O)O)c1c[nH]c2cccc(Cl)c12)c1ccc(F)cc1F (centres unmarked) [(2-1), 2-(4-chloro-1H-indol-3-yl)-4-(2,4-difluorophenyl)-4-oxo-butanoic Acid]	203 to 204	–
O=C(CC(C(=O)O)c1c[nH]c2ccc(F)cc12)c1ccc(F)cc1F (centres unmarked)	207 to 208	–
O=C(CC(C(=O)O)c1c[nH]c2cc(F)ccc12)c1ccc(F)cc1F (centres unmarked) [Compound (4-1), 4-(2,4-difluorophenyl)-2-(6-fluoro-1H-indol-3-yl)-4-oxo-butanoic Acid]	210 to 214	–
CCCCOc1ccc2cccc(CC(=O)O)c2c1 [Compound #33, α-(7-Butoxy-1-naphthalenyl)-acetic Acid]	102 to 104	–
O=C(CC(C(=O)O)c1c[nH]c2c(Cl)cccc12)c1ccc(F)cc1F (centres unmarked) [(5-1), 2-(7-chloro-1H-indol-3-yl)-4-(2,4-difluorophenyl)-4-oxo-butanoic Acid]	225 to 227	–
O=C(CC(C(=O)O)c1c[nH]c2ccccc12)c1ccc(F)cc1F (centres unmarked) [Compound #5, 4-(2,4-Difluorophenyl)-2-(1H-indol-3-yl)-4-oxo-butanoic Acid]	–	The number of two-cell eggs ([1]; sperms precultured 1 hour in TYH culture medium containing 1 μM compound #5, 11 ova): 11; Fertilization rate (%) ([1]; sperms precultured 1 hour in TYH culture medium containing 1 μM compound #5, two-cell eggs observed 24 to 28 hours after semination, control without compound 40%): 100%; The number of two-cell eggs ([1]; sperms precultured 1 hour in TYH culture medium containing 10 μM FCCP and 1 μM compound #5, 10 ova): 5; Fertilization rate (%) ([1]; sperms precultured 1 hour in TYH culture medium containing 10 μM FCCP and 1 μM compound #5, FCCP alone 30%): 50%
O=C(CC(C(=O)O)c1c[nH]c2ccc(Cl)cc12)c1ccc(F)cc1F (centres unmarked) [(3-2), 2-(5-chloro-1H-indol-3-yl)-4-(2,4-difluorophenyl)-4-oxo-butanoic Acid]	236 to 239	–
CCCOc1ccc2[nH]cc(CC(=O)O)c2c1 [Compound #38, 5-(1-Propoxy)-3-indoleacetic Acid]	133.6 to 136.8	–
CCCCOc1ccc2[nH]cc(CC(=O)O)c2c1 [Compound #39, 5-(1-Butoxy)-3-indoleacetic Acid]	137.8 to 141.1	–
O=C(CC(C(=O)O)c1c[nH]c2ccccc12)c1ccccc1 (centres unmarked) [Compound #20, 4-Phenyl-2-(1H-indol-3-yl)-4-oxo-butanoic Acid]	149 to 150	–
COc1cccc2c(C(CC(=O)c3ccc(F)cc3F)C(=O)O)c[nH]c12 (centres unmarked) [(5-2), 4-(2,4-difluorophenyl)-2-(7-methoxy-1H-indol-3-yl)-4-oxo-butanoic Acid]	181 to 183	–
CCCCCOc1ccc2cccc(CC(=O)O)c2c1 [Compound #34, α-(7-Pentoxy-1-naphthalenyl)-acetic Acid]	104 to 106	–
CCOc1ccc2[nH]cc(CC(=O)O)c2c1 [Compound #37, 5-Ethoxy-3-indoleacetic Acid]	86 to 92.7	–
O=C(CC(C(=O)O)c1c[nH]c2cc(OCc3ccccc3)ccc12)c1ccc(F)cc1F (centres unmarked) [(4-2), 2-(6-benzyloxy-1H-indol-3-yl)-4-(2,4-difluorophenyl)-4-oxo-butanoic Acid]	177 to 178	–
COc1ccc2[nH]cc(C(CC(=O)c3ccc(F)cc3F)C(=O)O)c2c1 (centres unmarked) [(3-4), 4-(2,4-difluorophenyl)-2-(5-methoxy-1H-indol-3-yl)-4-oxo-butanoic Acid]	205 to 206	–
CCCn1cc(C(CC(=O)c2ccc(C)cc2C)C(=O)O)c2ccccc21 (centres unmarked) [Compound #6, 4-(2,4-Dimethylphenyl)-2-(1-propyl-1H-indol-3-yl)-4-oxo-butanoic Acid]	139 to 141	–

— patent publication US12139459B2, “Enhancer of fertilization function of sperm” (TOHOKU UNIVERSITY, priority 2018, dated 2024)
